PubChem BioAssay (NCI)
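All cell lines were grown in 96-well plates and treated with compound for 48 hours. TGI marks complete inhibition of growth.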

Assays:
Test in all cases: NCI anticancer screen, dose series, 48 h
[1] = tested on: M14 melanoma
[2] = tested on: LOX IMVI melanoma
[3] = tested on: HL-60(TB) leukemia
[4] = tested on: OVCAR-8 ovarian
[5] = tested on: SR leukemia
[6] = tested on: SK-MEL-2 melanoma
[7] = tested on: MALME-3M melanoma
[8] = tested on: HCC-2998 colon
[9] = tested on: UACC-257 melanoma
[10] = tested on: IGROV1 ovarian
[11] = tested on: HT29 colon
[12] = tested on: UO-31 renal
[13] = tested on: EKVX NSCLC
[14] = tested on: RPMI-8226 leukemia
[15] = tested on: HCT-116 colon
[16] = tested on: OVCAR-4 ovarian
[17] = tested on: MDA-N
[18] = tested on: DU-145 prostate
[19] = tested on: MDA-MB-231 breast
[20] = tested on: NCI/ADR-RES ovarian

| SMILES | TGI [1] [µM] | TGI [2] [µM] | TGI [3] [µM] | TGI [4] [µM] | TGI [5] [µM] | TGI [6] [µM] | TGI [7] [µM] | TGI [8] [µM] | TGI [9] [µM] | TGI [10] [µM] | TGI [11] [µM] | TGI [12] [µM] | TGI [13] [µM] | TGI [14] [µM] | TGI [15] [µM] | TGI [16] [µM] | TGI [17] [µM] | TGI [18] [µM] | TGI [19] [µM] | TGI [20] [µM] |
| --- | --- | --- | --- | --- | --- | --- | --- | --- | --- | --- | --- | --- | --- | --- | --- | --- | --- | --- | --- | --- |
| NCCCC(N=Cc1nc(-c2ccccc2)oc1O)C(=O)O (centres undefined) | > 100 | > 100 | > 100 | > 100 | > 100 | > 100 | > 100 | > 100 | > 100 | > 100 | > 100 | > 100 | > 100 | > 100 | > 100 | > 100 | – | – | – | – |
| COc1c2cc([N+](=O)[O-])cc1CN(C(=O)C(F)(F)F)CCOCCN(C(=O)C(F)(F)F)C2 | > 100 | > 100 | > 100 | > 100 | – | > 100 | > 100 | – | > 100 | > 100 | > 100 | > 100 | > 100 | – | > 100 | > 100 | > 100 | > 100 | > 100 | – |
| CCCCCCCCCCCCCCCCCCOCC(C[N+]1(C)CCC(O)CC1)OCC (centres undefined) | 23.4 | – | 8.42 | 41.4 | 3.73 | 20.9 | 28.8 | 31.7 | 28 | 21 | 14.9 | 27.5 | 46.3 | 11.5 | 27.6 | 18 | – | – | – | – |
| CC(C)(C)C1=CC(=C2C=Cc3cc(O)ccc3O2)C=C(C(C)(C)C)C1=O | 3.29 | 3.03 | 3.15 | 3.79 | 3.86 | 3.09 | 3.16 | 2.54 | 3.07 | 3.04 | 3.59 | 2.5 | 3.5 | 4.21 | 2.43 | 3.04 | – | 3.03 | 3.18 | 4.9 |
| C/C(O)=C(\C=NC(=S)c1cccnc1)C(=O)Nc1ccccc1C | > 100 | > 100 | – | > 100 | – | > 100 | – | > 100 | > 100 | > 100 | > 100 | > 100 | > 100 | > 100 | > 100 | > 100 | > 100 | > 100 | > 100 | > 100 |
| O=C(Nc1ccc([N+](=O)[O-])cc1[N+](=O)[O-])C(=O)C(C(=O)c1ccc(Cl)c(Cl)c1)C1OC(=O)c2ccccc21 (centres undefined) | – | 41.4 | 85.3 | 45.5 | > 100 | – | > 100 | – | 68.4 | 84.7 | 71.1 | 80.9 | > 100 | > 100 | 38.4 | > 100 | – | – | – | – |
| CCOC(=O)c1csc(C(CSCc2ccc(OC)cc2)N2C(=O)c3ccccc3C2=O)n1 (centres undefined) | > 100 | > 100 | > 100 | > 100 | > 100 | – | > 100 | > 100 | > 100 | > 100 | > 100 | > 100 | > 100 | > 100 | > 100 | > 100 | – | > 100 | > 100 | > 100 |
